Each structure is given as a SMILES string.

The results in this text go back to patent US20230399312A1, “SUBSTITUTED PYRIMIDINES AND METHODS OF USE” (THERAVANCE BIOPHARMA R&D IP, LLC, priority 2020, published 2023).

In assay [1] the test system is TGF-β-stimulated SMAD3 phosphorylation in BEAS-2B cells. Briefly: Cellular ALK5 potency assay, inhibition of TGF-β stimulated pSMAD3 formation in BEAS-2B cells. The note with it: Homo sapiens, pSMAD3, TGF-β 10 ng/mL, read-out: BEAS2B pIC50 (converted). Format: cell-based. A digest of the protocol:
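Human lung epithelial BEAS-2B cells were preincubated 1 h at 37 °C with compound in HBSS/HEPES/1% BSA, then stimulated 30 min with 10 ng/mL TGF-β. pSMAD3 in lysates was quantified by AlphaLISA relative to untreated stimulated cells; reported as pIC50.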

Assay [2] concerns the target T1, recombinant human ALK5 (TGF-βR1) protein (Homo sapiens, UniProt P36897).
T1 construct: purchased Life Technologies PR9075A
T1 sequence (P36897 34-503): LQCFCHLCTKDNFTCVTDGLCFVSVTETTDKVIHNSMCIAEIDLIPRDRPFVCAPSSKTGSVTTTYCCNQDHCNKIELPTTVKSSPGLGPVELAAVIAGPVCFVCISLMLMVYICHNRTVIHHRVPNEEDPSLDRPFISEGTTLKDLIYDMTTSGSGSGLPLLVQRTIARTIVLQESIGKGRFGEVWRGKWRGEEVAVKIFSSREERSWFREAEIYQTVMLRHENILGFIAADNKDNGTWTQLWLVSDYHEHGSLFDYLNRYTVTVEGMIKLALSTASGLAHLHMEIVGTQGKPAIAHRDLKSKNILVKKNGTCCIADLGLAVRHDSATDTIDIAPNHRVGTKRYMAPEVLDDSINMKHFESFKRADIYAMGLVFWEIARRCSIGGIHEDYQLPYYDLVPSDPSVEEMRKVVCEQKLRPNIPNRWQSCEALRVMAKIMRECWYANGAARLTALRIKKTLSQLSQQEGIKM
Kind of assay: Biochemical ALK5 (TGF-βR1) assay to measure pKi (LANCE Ultra ULight kinase assay). The note with it: apparent pKi, converted from pIC50 by Cheng-Prusoff. A digest of the protocol: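 Europium TR-FRET kinase assay: the enzyme is exposed to compound for 60 min at room temperature, and reaction with ATP runs 60 min at 37 °C. Percent inhibition relative to DMSO and SD-208 controls gives pIC50, which is converted to pKi.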
For orientation: Time-resolved FRET reads energy transfer from a long-lived donor to a nearby acceptor.

For `Cc1cccc(-c2nccc(Nc3ccnc(Nc4cnc(N5CCNCC5)nc4)n3)n2)n1` [Compound 86, N4-(2-(6-methylpyridin-2-yl)pyrimidin-4-yl)-N2-(2-(piperazin-1-yl)pyrimidin-5-yl)pyrimidine-2,4-diamine], in assay [1], the IC50 was 200 to 1260 nM. Further, the Ki in assay [2] was 0.398 to 3.16 nM.
In the same order, the values of `Cc1cccc(-c2nccc(Nc3ccnc(Nc4cccc(S(=O)(=O)N(C)C5CCNCC5)c4)n3)n2)n1` [Compound 87, N-methyl-3-[[4-[[2-(6-methyl-2-pyridyl)pyrimidin-4-yl]amino]pyrimidin-2-yl]amino]-N-(4-piperidyl)benzenesulfonamide] are 200 to 1260 nM and 3.98 to 31.6 nM.
Regarding `Cc1cccc(-c2nccc(Nc3ccnc(Nc4ccc(CN5CC(C(=O)OCC6CNC6)C5)cc4)n3)n2)n1` [Compound 88, azetidin-3-ylmethyl 1-(4-((4-((2-(6-methylpyridin-2-yl)pyrimidin-4-yl)amino)pyrimidin-2-yl)amino)benzyl)azetidine-3-carboxylate], the IC50 in assay [1] is 25.1 to 158 nM. The Ki in assay [2] was 0.0398 to 0.316 nM.
With `Cc1cccc(-c2nccc(Nc3ccnc(Nc4csc(C(=O)NCC5CNC5)c4)n3)n2)n1` [Compound 89, N-(azetidin-3-ylmethyl)-4-[[4-[[2-(6-methyl-2-pyridyl)pyrimidin-4-yl]amino]pyrimidin-2-yl]amino]thiophene-2-carboxamide], in assay [1], the IC50 is at most 20 nM. Moreover, the Ki in assay [2] was at most 0.0316 nM.
In the case of `CNC1CCN(c2ccc(Nc3nccc(Nc4ccnc(-c5ccccc5F)n4)n3)cc2)CC1` [Compound 90, N4-[2-(2-fluorophenyl)pyrimidin-4-yl]-N2-[4-[4-(methylamino)-1-piperidyl]phenyl]pyrimidine-2,4-diamine], the IC50 in assay [1] is 25.1 to 158 nM. In addition, in assay [2], the Ki was 0.398 to 3.16 nM.
Turning to `Cc1cccc(-c2nccc(Nc3ccnc(Nc4ccc(C(=O)NCC5CNC5)cc4)n3)n2)n1` [Compound 92, N-(azetidin-3-ylmethyl)-4-[[4-[[2-(6-methyl-2-pyridyl)pyrimidin-4-yl]amino]pyrimidin-2-yl]amino]benzamide], the IC50 in assay [1] was at most 20 nM. In addition, the Ki in assay [2] was 0.0398 to 0.316 nM.
Turning to `Cc1cccc(-c2nccc(Nc3ccnc(Nc4ccc(NS(=O)(=O)N5CCNCC5)cc4)n3)n2)n1` [Compound 93, N-[4-[[4-[[2-(6-methyl-2-pyridyl)pyrimidin-4-yl]amino]pyrimidin-2-yl]amino]phenyl]piperazine-1-sulfonamide], the IC50 in assay [1] was 200 to 1260 nM. Moreover, in assay [2], the Ki was 0.0398 to 0.316 nM.
In the case of `Cc1cccc(-c2nccc(Nc3ccnc(Nc4csc(CN5CCNCC5)c4)n3)n2)n1` [Compound 94, N4-(2-(6-methylpyridin-2-yl)pyrimidin-4-yl)-N2-(5-(piperazin-1-ylmethyl)thiophen-3-yl)pyrimidine-2,4-diamine], the IC50 in assay [1] is at most 20 nM. For the same molecule, in assay [2], the Ki was at most 0.0316 nM.
The matching figures for `Cc1cccc(-c2nccc(Nc3ccnc(Nc4ccc(N5CCNCC5)c(CC(=O)O)c4)n3)n2)n1` [Compound 95, 2-[5-[[4-[[2-(6-methyl-2-pyridyl)pyrimidin-4-yl]amino]pyrimidin-2-yl]amino]-2-piperazin-1-yl-phenyl]acetic acid]: 200 to 1260 nM and 0.0398 to 0.316 nM.
In the same order, the values of `Cc1cccc(-c2nccc(Nc3ccnc(Nc4csc(C(=O)OCC5CNC5)c4)n3)n2)n1` [Compound 96, azetidin-3-ylmethyl 4-((4-((2-(6-methylpyridin-2-yl)pyrimidin-4-yl)amino)pyrimidin-2-yl)amino)thiophene-2-carboxylate] are 25.1 to 158 nM and 0.0398 to 0.316 nM.
In the same order, the values of `Cc1cccc(-c2nccc(Nc3ccnc(Nc4ccc(CN5CC(C(=O)O[C@H]6CCN(C)C6)C5)cc4)n3)n2)n1` [Compound 97, [(3S)-1-methylpyrrolidin-3-yl] 1-[[4-[[4-[[2-(6-methyl-2-pyridyl)pyrimidin-4-yl]amino]pyrimidin-2-yl]amino]phenyl]methyl] azetidine-3-carboxylate] are 25.1 to 158 nM and 0.0398 to 0.316 nM.
With `Cc1cccc(-c2nccc(Nc3ccnc(Nc4ccc(N5CC(N)C5)cc4)n3)n2)n1` [Compound 98, N2-[4-(3-aminoazetidin-1-yl)phenyl]-N4-[2-(6-methyl-2-pyridyl)pyrimidin-4-yl]pyrimidine-2,4-diamine], in assay [1], the IC50 was 25.1 to 158 nM. Further, in assay [2], the Ki was 0.0398 to 0.316 nM.
The matching figures for `Cc1cccc(-c2nccc(Nc3ccnc(Nc4ccc(CN5CC(C)(CO)C5)cc4)n3)n2)n1` [Compound 99, [3-methyl-1-[[4-[[4-[[2-(6-methyl-2-pyridyl)pyrimidin-4-yl]amino]pyrimidin-2-yl]amino]phenyl]methyl]azetidin-3-yl]methanol]: 25.1 to 158 nM and at most 0.0316 nM.
The matching figures for `Cc1cccc(-c2nccc(Nc3ccnc(Nc4ccc(C(=O)OCC5CNC5)s4)n3)n2)n1` [Compound 100, azetidin-3-ylmethyl 5-[[4-[[2-(6-methyl-2-pyridyl)pyrimidin-4-yl]amino]pyrimidin-2-yl]amino]thiophene-2-carboxylate]: 25.1 to 158 nM and 0.0398 to 0.316 nM.
`Cc1cccc(-c2nccc(Nc3ccnc(Nc4ccc(N5CCC(C(=O)OC6CCNC6)CC5)cc4)n3)n2)n1` (stereo not shown) [Compound 101, pyrrolidin-3-yl 1-[4-[[4-[[2-(6-methyl-2-pyridyl)pyrimidin-4-yl]amino]pyrimidin-2-yl]amino]phenyl]piperidine-4-carboxylate]: the IC50 in assay [1] is 25.1 to 158 nM. The Ki in assay [2] is 0.0398 to 0.316 nM.
The matching figures for `Cc1cccc(-c2nccc(Nc3ccnc(Nc4ccc(N5CCN(CC6CCNC6)CC5)cc4)n3)n2)n1` (stereo not shown) [Compound 102, N4-[2-(6-methyl-2-pyridyl)pyrimidin-4-yl]-N2-[4-[4-(pyrrolidin-3-ylmethyl)piperazin-1-yl]phenyl]pyrimidine-2,4-diamine]: 25.1 to 158 nM and 0.0398 to 0.316 nM.
The matching figures for `Cc1cccc(-c2nccc(Nc3ccnc(Nc4ccc(CN5CCSCC5)cc4)n3)n2)n1` [Compound 104, N4-[2-(6-methyl-2-pyridyl)pyrimidin-4-yl]-N2-[4-(thiomorpholinomethyl)phenyl] pyrimidine-2,4-diamine]: 25.1 to 158 nM and 0.0398 to 0.316 nM.
The matching figures for `Cc1cccc(-c2nccc(Nc3ccnc(Nc4ccc(NS(=O)(=O)CC5CCCNC5)cc4)n3)n2)n1` (stereo not shown) [Compound 106, N-(4-((4-((2-(6-methylpyridin-2-yl)pyrimidin-4-yl)amino)pyrimidin-2-yl)amino)phenyl)-1-(piperidin-3-yl)methanesulfonamide]: 25.1 to 158 nM and 0.0398 to 0.316 nM.
Consider `Cc1cccc(-c2nccc(Nc3ccnc(Nc4ccc(S(=O)(=O)N5CCN(C(=O)NC(C)C)CC5)cc4)n3)n2)n1` [Compound 107, N-isopropyl-4-[4-[[4-[[2-(6-methyl-2-pyridyl)pyrimidin-4-yl]amino]pyrimidin-2-yl]amino]phenyl]sulfonyl-piperazine-1-carboxamide], for which the IC50 in assay [1] was 200 to 1260 nM. Besides, the Ki in assay [2] was 0.398 to 3.16 nM.
Turning to `Cc1cccc(-c2nccc(Nc3ccnc(Nc4ccc(S(N)(=O)=O)cc4)n3)n2)n1` [Compound 108, 4-((4-((2-(6-methylpyridin-2-yl)pyrimidin-4-yl)amino)pyrimidin-2-yl)amino)benzenesulfonamide], the IC50 in assay [1] is 25.1 to 158 nM. Also, in assay [2], the Ki was 0.0398 to 0.316 nM.
